Assay results from ChEMBL document CHEMBL1909046, “DrugMatrix in vitro pharmacology data”.

What was measured:
[1] = target: C-C chemokine receptor type 2 (Homo sapiens, UniProt P41597); type: cell membranes, CHO-K1, Membrane; further: in other assays of this panel Not Active means under 50% inhibition at 10 µM
[2] = DRUGMATRIX: GABAA, Muscimol, Central radioligand binding (ligand: [3H] Muscimol); type: cell membranes, Rattus norvegicus, Wistar, Brain, Membrane; settings: Not Active = under 50% inhibition at 10 µM
[3] = target: T1, Angiotensin-converting enzyme (Oryctolagus cuniculus, UniProt P12822); test: biochemical; type: tissue-based, Lung;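 further: enzymatic inhibition of angiotensin-converting enzyme measured with FAPGG as the substrate; in other assays of this panel Not Active means under 50% inhibition at 10 µM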
T1 sequence (P12822 whole entry): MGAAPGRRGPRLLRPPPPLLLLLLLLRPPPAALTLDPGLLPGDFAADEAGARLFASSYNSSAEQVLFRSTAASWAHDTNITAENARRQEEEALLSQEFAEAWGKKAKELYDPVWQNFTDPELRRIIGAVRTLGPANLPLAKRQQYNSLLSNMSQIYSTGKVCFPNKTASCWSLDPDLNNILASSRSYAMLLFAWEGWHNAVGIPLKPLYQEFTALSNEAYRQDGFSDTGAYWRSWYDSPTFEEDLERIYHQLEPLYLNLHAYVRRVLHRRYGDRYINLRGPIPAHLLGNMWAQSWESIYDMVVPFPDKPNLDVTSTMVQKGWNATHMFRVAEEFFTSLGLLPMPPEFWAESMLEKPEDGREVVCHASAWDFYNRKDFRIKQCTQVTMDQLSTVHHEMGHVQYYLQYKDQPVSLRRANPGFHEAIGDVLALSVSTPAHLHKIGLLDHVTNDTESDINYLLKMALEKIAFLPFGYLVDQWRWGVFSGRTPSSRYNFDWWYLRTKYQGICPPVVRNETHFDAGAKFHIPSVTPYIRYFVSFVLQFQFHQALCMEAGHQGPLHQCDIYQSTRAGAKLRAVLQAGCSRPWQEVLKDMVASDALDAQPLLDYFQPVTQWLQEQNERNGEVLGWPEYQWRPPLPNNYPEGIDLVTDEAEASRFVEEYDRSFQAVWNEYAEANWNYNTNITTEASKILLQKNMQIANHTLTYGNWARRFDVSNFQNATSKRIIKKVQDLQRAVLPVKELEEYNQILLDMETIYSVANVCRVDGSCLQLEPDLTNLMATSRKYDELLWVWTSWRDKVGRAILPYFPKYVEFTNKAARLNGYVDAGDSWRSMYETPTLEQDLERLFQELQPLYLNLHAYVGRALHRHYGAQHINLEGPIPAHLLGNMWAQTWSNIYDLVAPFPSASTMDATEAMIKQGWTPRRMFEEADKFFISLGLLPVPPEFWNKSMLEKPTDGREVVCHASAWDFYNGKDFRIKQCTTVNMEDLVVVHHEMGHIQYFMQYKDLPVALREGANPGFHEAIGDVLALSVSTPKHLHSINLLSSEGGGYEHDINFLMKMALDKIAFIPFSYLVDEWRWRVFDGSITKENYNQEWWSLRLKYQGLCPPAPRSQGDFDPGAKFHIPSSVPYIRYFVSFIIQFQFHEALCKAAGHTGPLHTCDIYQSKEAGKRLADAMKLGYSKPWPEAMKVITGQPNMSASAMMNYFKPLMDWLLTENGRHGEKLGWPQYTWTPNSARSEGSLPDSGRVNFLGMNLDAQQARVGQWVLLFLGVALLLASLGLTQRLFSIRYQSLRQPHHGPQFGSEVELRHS

[4] = target: T2, Neutrophil elastase (Homo sapiens, UniProt P08246); type: tissue-based;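 further: inhibition of neutrophil elastase enzyme activity, measured with a p-nitroanilide-linked peptide substrate; in other assays of this panel Not Active means under 50% inhibition at 10 µM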
T2 sequence (P08246 whole entry): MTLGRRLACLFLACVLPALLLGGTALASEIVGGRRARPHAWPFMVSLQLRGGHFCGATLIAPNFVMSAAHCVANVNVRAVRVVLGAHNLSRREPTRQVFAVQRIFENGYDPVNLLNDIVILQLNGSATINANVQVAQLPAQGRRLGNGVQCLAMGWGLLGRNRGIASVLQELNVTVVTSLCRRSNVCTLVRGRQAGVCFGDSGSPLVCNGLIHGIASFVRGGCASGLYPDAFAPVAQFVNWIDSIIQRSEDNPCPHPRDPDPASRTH

[5] = target: T3, 3-hydroxy-3-methylglutaryl-coenzyme A reductase (Homo sapiens, UniProt P04035); set-up: species or system Escherichia coli;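 further: enzyme inhibition assay of HMG-CoA reductase using radiolabeled [14C]HMG-CoA as substrate; in other assays of this panel Not Active means under 50% inhibition at 10 µM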
T3 sequence (P04035 whole entry): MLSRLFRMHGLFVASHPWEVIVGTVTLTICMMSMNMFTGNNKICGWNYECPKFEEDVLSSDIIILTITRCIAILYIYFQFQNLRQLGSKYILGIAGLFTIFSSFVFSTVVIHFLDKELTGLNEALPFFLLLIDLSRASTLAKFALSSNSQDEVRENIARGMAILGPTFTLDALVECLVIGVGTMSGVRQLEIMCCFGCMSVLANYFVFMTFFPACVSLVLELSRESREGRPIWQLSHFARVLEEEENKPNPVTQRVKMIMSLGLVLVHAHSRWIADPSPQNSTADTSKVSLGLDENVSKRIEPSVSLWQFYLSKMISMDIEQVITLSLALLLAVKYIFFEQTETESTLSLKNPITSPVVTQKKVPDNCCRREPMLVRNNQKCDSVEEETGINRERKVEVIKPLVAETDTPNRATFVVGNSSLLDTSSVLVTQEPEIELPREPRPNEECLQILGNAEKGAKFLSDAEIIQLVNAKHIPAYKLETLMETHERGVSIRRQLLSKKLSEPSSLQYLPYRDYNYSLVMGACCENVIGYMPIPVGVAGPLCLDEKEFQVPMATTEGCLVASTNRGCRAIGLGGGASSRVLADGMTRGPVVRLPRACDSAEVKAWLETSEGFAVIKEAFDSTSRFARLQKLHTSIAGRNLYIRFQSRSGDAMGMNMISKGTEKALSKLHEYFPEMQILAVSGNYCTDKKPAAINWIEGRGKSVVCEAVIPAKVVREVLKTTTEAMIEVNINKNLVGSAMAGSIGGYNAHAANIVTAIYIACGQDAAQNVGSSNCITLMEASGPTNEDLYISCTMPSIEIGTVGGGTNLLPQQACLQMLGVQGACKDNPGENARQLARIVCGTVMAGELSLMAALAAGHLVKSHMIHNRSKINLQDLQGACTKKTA

[6] = target: T4, Neuropeptide Y receptor type 1 (Homo sapiens, UniProt P25929); type: cell membranes, Membrane; settings: sk-n-mc; further: in other assays of this panel Not Active means under 50% inhibition at 10 µM
T4 sequence (P25929 whole entry): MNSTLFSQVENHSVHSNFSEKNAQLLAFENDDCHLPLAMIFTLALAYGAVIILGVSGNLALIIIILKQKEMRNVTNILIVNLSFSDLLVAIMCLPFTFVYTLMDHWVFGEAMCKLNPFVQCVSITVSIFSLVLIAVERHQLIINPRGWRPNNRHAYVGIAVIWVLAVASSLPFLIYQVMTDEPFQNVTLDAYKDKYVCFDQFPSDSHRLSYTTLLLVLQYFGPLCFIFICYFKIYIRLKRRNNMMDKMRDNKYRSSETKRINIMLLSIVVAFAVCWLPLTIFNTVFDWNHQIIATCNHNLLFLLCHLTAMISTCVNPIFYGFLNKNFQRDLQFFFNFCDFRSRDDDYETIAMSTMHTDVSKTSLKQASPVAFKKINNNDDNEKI

Chain of C-C chemokine receptor type 2 (P41597 whole entry): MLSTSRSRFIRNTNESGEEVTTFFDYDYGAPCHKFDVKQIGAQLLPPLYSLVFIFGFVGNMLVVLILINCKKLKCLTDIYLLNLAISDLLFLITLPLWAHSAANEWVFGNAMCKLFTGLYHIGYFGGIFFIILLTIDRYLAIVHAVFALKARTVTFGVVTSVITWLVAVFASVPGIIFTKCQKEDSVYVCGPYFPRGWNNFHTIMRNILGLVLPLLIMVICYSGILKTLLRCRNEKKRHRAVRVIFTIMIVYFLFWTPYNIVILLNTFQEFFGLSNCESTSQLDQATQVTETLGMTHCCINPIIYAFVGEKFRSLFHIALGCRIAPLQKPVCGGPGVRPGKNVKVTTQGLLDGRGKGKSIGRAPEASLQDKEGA

SMILES	IC50 ([1]; cho-k1)	IC50 [2]	Ki [2]	IC50 [3]	IC50 [4]	IC50 [5]	IC50 [6]	IC50 ([1]; read-out: IC50)	Ki ([1]; read-out: Ki)	IC50 ([5]; read-out: IC50)
CCOc1cc(N)c(Cl)cc1C(=O)NCC1CN(Cc2ccc(F)cc2)CCO1 (centres undefined) [MOSAPRIDE]	Not Active	Not Active	Not Active	Not Active	Not Active	Not Active	Not Active	–	–	–
O=C(c1ccccc1)c1ccc2n1CCC2C(=O)O (centres undefined) [KETOROLAC]	Not Active	Not Active	Not Active	Not Active	Not Active	Not Active	Not Active	–	–	–
Nc1nc(N)c2nc(-c3ccccc3)c(N)nc2n1	Not Active	Not Active	Not Active	Not Active	Not Active	Not Active	Not Active	–	–	–
Oc1ccc(/C=C/c2cc(O)cc(O)c2)cc1 [RESVERATROL]	Not Active	Not Active	Not Active	Not Active	Not Active	Not Active	Not Active	–	–	–
Cc1ccnc(NS(=O)(=O)c2ccc(N)cc2)n1 [SULFAMERAZINE]	Not Active	Not Active	Not Active	Not Active	Not Active	Not Active	Not Active	–	–	–
CCN1CCCC1CNC(=O)c1cc(S(N)(=O)=O)ccc1OC (centres undefined) [SULPIRIDE]	Not Active	Not Active	Not Active	Not Active	Not Active	Not Active	Not Active	–	–	–
O=C1CC[C@@]2(O)[C@H]3Cc4ccc(O)c5c4[C@@]2(CCN3CC2CC2)[C@H]1O5 [NALTREXONE]	Not Active	Not Active	Not Active	Not Active	Not Active	Not Active	Not Active	–	–	–
CCN(CC)C(=S)SSC(=S)N(CC)CC	–	Not Active	Not Active	Not Active	Not Active	Not Active	Not Active	2470 nM	954 nM	–
O=C(OC[C@H]1O[C@@H](OC(=O)c2cc(O)c(O)c(OC(=O)c3cc(O)c(O)c(O)c3)c2)[C@H](OC(=O)c2cc(O)c(O)c(OC(=O)c3cc(O)c(O)c(O)c3)c2)[C@@H](OC(=O)c2cc(O)c(O)c(OC(=O)c3cc(O)c(O)c(O)c3)c2)[C@@H]1OC(=O)c1cc(O)c(O)c(OC(=O)c2cc(O)c(O)c(O)c2)c1)c1cc(O)c(O)c(OC(=O)c2cc(O)c(O)c(O)c2)c1 [TANNIC ACID]	Not Active	Not Active	Not Active	Not Active	Not Active	–	Not Active	–	–	3130 nM
C=CCc1ccc2c(c1)OCO2 [SAFROLE]	Not Active	Not Active	Not Active	Not Active	Not Active	Not Active	Not Active	–	–	–
C#C[C@]1(O)CC[C@H]2[C@@H]3[C@H](C)CC4=C(CCC(=O)C4)[C@H]3CC[C@@]21C [TIBOLONE]	Not Active	Not Active	Not Active	Not Active	Not Active	Not Active	Not Active	–	–	–
CC[C@@]1(O)C(=O)OCc2c1cc1n(c2=O)Cc2cc3c(CN(C)C)c(O)ccc3nc2-1 [TOPOTECAN]	Not Active	Not Active	Not Active	Not Active	Not Active	Not Active	Not Active	–	–	–
CC1(C)[C@H](C(=O)O)N2C(=O)C[C@H]2S1(=O)=O [SULBACTAM]	Not Active	Not Active	Not Active	Not Active	Not Active	Not Active	Not Active	–	–	–
CCN(CC)N=O [N-NITROSODIETHYLAMINE]	Not Active	Not Active	Not Active	Not Active	Not Active	Not Active	Not Active	–	–	–
C[C@]12CCC(=O)C[C@@H]1CC[C@@H]1[C@@H]2CC[C@]2(C)[C@@H](O)CC[C@@H]12 [STANOLONE]	Not Active	Not Active	Not Active	Not Active	Not Active	Not Active	Not Active	–	–	–
Cc1cccc(C)c1NC(=O)C(C)N (centres undefined) [TOCAINIDE]	Not Active	Not Active	Not Active	Not Active	Not Active	Not Active	Not Active	–	–	–
Cc1cc2c(s1)Nc1ccccc1N=C2N1CCN(C)CC1 [OLANZAPINE]	Not Active	–	–	Not Active	Not Active	Not Active	Not Active	–	–	–
CCC(C)(C)C(=O)O[C@H]1C[C@@H](C)C=C2C=C[C@H](C)[C@H](CC[C@@H]3C[C@@H](O)CC(=O)O3)[C@H]21 [SIMVASTATIN]	Not Active	Not Active	Not Active	Not Active	Not Active	–	Not Active	–	–	–
CNCCCC12CCC(c3ccccc31)c1ccccc12 [MAPROTILINE]	Not Active	–	–	Not Active	Not Active	Not Active	Not Active	–	–	–
CN(C)CCC=C1c2ccccc2COc2ccccc21 [DOXEPIN]	Not Active	–	–	Not Active	Not Active	Not Active	Not Active	–	–	–
